In patent publication US10344060B2 (priority 2013, dated 2019):

Assays:
Assay in all cases: cell-based
Assay type in all cases: cell-based
hNav1.4 = hNav1.4 (Homo sapiens, UniProt P35499); settings: Table 12; for IC50: PatchXpress, tonic block, read-out: PX hNav1.4 Tonic IC50; for Nav1.4/Nav1.7: ratio of PX tonic IC50 values
hNav1.7 = hNav1.7 (Homo sapiens, UniProt Q15858); settings: Table 12; PatchXpress, tonic block; read-out: PX hNav1.7 Tonic IC50
hNav1.6 = hNav1.6 (Homo sapiens, UniProt Q9UQD0); settings: Table 15; for Nav1.6/Nav1.7: ratio of PX tonic IC50 values; for IC50: read-out: PX hNav1.6 Tonic IC50

hNav1.7, sequence (Q15858 whole entry): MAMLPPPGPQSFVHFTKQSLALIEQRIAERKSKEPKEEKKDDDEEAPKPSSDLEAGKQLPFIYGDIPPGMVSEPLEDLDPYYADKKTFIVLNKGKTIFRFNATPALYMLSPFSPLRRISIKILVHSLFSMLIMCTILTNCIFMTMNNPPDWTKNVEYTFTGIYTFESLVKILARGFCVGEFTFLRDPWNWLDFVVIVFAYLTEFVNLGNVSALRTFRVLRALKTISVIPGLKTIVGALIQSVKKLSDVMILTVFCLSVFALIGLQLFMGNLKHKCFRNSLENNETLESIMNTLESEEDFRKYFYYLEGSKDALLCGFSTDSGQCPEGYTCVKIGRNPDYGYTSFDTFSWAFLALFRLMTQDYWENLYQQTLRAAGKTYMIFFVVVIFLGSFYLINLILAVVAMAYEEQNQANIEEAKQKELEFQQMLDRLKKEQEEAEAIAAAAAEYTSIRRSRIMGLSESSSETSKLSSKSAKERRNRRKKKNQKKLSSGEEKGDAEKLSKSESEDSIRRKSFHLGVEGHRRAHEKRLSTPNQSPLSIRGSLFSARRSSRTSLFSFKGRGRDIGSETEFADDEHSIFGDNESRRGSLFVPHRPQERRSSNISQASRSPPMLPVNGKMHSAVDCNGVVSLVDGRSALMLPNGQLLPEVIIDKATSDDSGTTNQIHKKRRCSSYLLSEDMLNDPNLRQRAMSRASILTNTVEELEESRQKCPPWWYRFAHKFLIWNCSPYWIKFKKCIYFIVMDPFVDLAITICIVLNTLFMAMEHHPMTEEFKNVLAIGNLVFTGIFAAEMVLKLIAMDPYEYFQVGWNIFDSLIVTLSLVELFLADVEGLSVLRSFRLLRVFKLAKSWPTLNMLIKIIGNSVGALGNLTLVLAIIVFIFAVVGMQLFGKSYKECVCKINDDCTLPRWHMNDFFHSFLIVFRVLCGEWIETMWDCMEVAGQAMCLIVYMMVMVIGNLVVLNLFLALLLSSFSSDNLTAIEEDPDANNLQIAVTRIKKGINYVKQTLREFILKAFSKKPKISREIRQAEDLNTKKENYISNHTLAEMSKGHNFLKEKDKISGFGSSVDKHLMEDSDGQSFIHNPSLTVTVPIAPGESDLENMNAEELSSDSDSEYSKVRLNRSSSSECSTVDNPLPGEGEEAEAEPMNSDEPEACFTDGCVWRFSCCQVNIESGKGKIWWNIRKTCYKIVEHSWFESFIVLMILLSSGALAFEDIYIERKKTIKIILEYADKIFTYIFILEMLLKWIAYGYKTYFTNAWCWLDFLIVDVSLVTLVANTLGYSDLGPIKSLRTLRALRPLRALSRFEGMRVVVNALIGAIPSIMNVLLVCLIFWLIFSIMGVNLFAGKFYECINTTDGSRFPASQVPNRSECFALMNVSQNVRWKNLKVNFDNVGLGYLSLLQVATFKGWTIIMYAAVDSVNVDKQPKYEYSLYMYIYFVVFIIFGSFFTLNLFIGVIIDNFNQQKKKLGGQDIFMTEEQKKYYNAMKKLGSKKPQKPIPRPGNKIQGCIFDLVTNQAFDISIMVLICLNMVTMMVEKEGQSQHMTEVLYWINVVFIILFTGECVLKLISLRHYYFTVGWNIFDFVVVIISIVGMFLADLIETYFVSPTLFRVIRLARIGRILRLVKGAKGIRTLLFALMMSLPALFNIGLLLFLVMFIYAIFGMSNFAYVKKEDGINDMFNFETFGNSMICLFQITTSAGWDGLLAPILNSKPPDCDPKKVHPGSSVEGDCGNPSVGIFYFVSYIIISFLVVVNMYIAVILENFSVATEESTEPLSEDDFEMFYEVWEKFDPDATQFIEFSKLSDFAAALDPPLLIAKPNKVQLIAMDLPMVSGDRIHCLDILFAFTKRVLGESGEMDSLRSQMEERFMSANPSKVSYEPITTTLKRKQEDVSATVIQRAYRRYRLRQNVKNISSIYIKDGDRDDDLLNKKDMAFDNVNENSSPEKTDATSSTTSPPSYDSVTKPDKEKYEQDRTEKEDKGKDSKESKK
hNav1.4, sequence (P35499 whole entry): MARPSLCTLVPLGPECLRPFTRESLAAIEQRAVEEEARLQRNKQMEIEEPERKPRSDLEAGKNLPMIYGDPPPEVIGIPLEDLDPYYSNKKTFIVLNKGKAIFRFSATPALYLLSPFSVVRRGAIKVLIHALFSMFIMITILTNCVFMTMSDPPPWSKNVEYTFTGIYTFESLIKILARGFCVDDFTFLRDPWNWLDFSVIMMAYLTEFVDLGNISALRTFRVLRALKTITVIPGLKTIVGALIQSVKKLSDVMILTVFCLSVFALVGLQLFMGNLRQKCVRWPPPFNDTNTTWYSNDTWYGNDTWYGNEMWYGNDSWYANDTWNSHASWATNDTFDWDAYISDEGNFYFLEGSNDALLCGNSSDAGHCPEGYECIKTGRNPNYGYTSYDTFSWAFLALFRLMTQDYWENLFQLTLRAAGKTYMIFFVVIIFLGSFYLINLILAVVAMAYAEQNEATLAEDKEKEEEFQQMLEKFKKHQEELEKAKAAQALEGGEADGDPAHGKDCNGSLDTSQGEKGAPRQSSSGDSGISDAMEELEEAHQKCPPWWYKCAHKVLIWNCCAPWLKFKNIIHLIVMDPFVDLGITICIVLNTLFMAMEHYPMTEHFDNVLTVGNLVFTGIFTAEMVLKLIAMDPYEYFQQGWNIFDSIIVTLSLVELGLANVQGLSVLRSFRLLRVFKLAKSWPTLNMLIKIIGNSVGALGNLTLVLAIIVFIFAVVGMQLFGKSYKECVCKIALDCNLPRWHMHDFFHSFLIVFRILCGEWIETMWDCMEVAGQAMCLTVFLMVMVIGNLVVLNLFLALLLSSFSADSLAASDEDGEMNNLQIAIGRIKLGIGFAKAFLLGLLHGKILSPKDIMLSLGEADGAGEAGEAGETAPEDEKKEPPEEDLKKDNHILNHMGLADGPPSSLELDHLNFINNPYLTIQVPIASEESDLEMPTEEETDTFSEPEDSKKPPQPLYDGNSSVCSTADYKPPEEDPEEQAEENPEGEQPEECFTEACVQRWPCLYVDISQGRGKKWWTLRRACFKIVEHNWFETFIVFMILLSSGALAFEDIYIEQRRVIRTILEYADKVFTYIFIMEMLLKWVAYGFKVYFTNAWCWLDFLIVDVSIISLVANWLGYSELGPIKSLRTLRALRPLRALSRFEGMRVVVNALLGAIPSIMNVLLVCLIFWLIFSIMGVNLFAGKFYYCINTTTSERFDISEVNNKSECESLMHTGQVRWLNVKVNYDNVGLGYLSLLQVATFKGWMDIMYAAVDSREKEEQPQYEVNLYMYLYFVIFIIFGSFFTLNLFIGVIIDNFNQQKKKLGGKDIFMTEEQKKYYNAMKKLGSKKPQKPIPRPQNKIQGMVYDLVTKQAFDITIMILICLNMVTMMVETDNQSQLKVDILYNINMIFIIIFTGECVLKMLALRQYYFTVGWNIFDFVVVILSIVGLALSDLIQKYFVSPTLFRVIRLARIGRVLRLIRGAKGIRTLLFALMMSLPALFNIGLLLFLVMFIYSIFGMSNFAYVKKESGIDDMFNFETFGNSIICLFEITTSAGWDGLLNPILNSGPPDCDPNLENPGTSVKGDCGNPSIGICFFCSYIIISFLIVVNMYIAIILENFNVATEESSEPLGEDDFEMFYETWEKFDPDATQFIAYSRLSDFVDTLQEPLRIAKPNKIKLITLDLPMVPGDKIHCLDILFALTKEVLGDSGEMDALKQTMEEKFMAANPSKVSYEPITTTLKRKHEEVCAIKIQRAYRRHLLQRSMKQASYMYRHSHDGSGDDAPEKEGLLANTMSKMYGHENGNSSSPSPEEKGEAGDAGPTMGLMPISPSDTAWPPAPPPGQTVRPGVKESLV

Row | Structure (SMILES) | IC50 (hNav1.4) [nM] | Nav1.4/Nav1.7 (hNav1.4) | IC50 (hNav1.7) [nM] | Nav1.6/Nav1.7 (hNav1.6) | IC50 (hNav1.6) [nM]
1 | C#CC[C@H](NC(=O)[C@@H](N)CCC(=O)O)C(=O)N[C@@H](CCC(=O)O)C(=O)N[C@H]1CSSC[C@@H]2NC(=O)[C@@H]3CSSC[C@@H](C(=O)N[C@@H](CCCNC(=N)N)C(=O)N[C@@H](CCCCN)C(=O)N[C@@H](CCC(=O)O)C(=O)N[C@H](C(N)=O)[C@@H](C)CC)NC(=O)[C@H](Cc4c[nH]c5ccccc45)NC(=O)[C@H](CC(C)C)NC(=O)[C@H](CCCCN)NC(=O)[C@H](CSSC[C@H](NC(=O)[C@H]([C@@H](C)O)NC(=O)[C@H](Cc4c[nH]c5ccccc45)NC(=O)[C@H](CCCC)NC(=O)[C@H](Cc4c[nH]c5ccccc45)NC(=O)[C@H](CCCCN)NC(=O)[C@H](CCC(N)=O)NC1=O)C(=O)N[C@@H](CC(=O)O)C(=O)N[C@@H](CCC(=O)O)C(=O)N[C@@H](CCCCN)C(=O)N[C@@H](CCCNC(=N)N)C(=O)N[C@@H](C)C(=O)N3)NC(=O)[C@H](CCCNC(=N)N)NC(=O)[C@H](CC(C)C)NC(=O)CNC(=O)[C@H](CCC(=O)O)NC2=O [compound 741] | 1680 | 302 | 5.59 | 1014 | 5660
2 | C#CC[C@@H]1NC(=O)[C@@H]2CSSC[C@H](NC(=O)[C@H](Cc3ccc(O)cc3)NC(=O)[C@@H](N)CC#N)C(=O)N[C@@H](CCC(N)=O)C(=O)N[C@@H](CCCCN)C(=O)N[C@@H](Cc3c[nH]c4ccccc34)C(=O)N[C@@H](CCCC)C(=O)N[C@@H](Cc3c[nH]c4ccccc34)C(=O)N[C@@H]([C@@H](C)O)C(=O)N[C@H]3CSSC[C@H](NC(=O)[C@H](CCCNC(=N)N)NC(=O)[C@H](CC(C)C)NC(=O)CNC1=O)C(=O)N[C@@H](CCCCN)C(=O)N[C@@H](CC(C)C)C(=O)N[C@@H](Cc1c[nH]c4ccccc14)C(=O)N[C@H](C(=O)N[C@@H](CCCNC(=N)N)C(=O)N[C@@H](CCCCN)C(=O)N[C@@H](CCC(=O)O)C(=O)N[C@H](C(N)=O)[C@@H](C)CC)CSSC[C@H](NC(=O)[C@H](C)NC(=O)[C@H](CCCNC(=N)N)NC(=O)[C@H](CCC(=O)O)NC(=O)[C@H](CO)NC(=O)[C@H](CC(=O)O)NC3=O)C(=O)N2 [compound 732] | 253 | 291 | 0.87 | 1972 | 1720
3 | C#CC[C@H](NC(=O)[C@@H](N)CCC(=O)O)C(=O)N[C@H]1CSSC[C@@H]2NC(=O)[C@@H]3CSSC[C@@H](C(=O)N[C@@H](CCCNC(=N)N)C(=O)N[C@@H](CCCCN)C(=O)N[C@@H](CCC(=O)O)C(=O)N[C@H](C(N)=O)[C@@H](C)CC)NC(=O)[C@H](Cc4c[nH]c5ccccc45)NC(=O)[C@H](CC(C)C)NC(=O)[C@H](CCCCN)NC(=O)[C@H](CSSC[C@H](NC(=O)[C@H]([C@@H](C)O)NC(=O)[C@H](Cc4c[nH]c5ccccc45)NC(=O)[C@H](CCCC)NC(=O)[C@H](Cc4c[nH]c5ccccc45)NC(=O)[C@H](CCCCN)NC(=O)[C@H](CCC(N)=O)NC1=O)C(=O)N[C@@H](CC(=O)O)C(=O)N[C@@H](CCC(=O)O)C(=O)N[C@@H](CCCCN)C(=O)N[C@@H](CCCNC(=N)N)C(=O)N[C@@H](C)C(=O)N3)NC(=O)[C@H](CCCNC(=N)N)NC(=O)[C@H](CC(C)C)NC(=O)CNC(=O)[C@H](CCC(=O)O)NC2=O [compound 736] | 547 | 375 | 1.46 | 1730 | 2520
